Data published in the Bradley open melting point set (2014).
“And” between values parts separate entries of the source, which are not always exact repeats. Equal values may be shown once.

SMILES | melting point
CCCCCCCCCCCC(C)O (stereo unspecified) [2-tridecanol] | 25 °C
CCCCCCCCCC(C)=O [2-undecanone] | 13 °C
C=Cc1ccccc1B(O)O [2-vinylbenzeneboronic acid] | 106 °C
CC(=O)c1ccc(Cl)c(Cl)c1 [3',4'-dichloroacetophenone] | 74 °C
CCC(=O)c1cc(F)c(O)c(F)c1 [3',5'-difluoro-4'-hydroxypropiophenone] | 130 °C
COc1cc(C(C)=O)cc(OC)c1O [3',5'-dimethoxy-4'-hydroxyacetophenone] | 119 °C
CC(=O)c1ccc(F)c(Cl)c1 [3'-chloro-4'-fluoroacetophenone] | 39 °C
CC(=O)Nc1cccc(F)c1 [3'-fluoroacetanilide] | 88 °C
COc1cccc(C(C)=O)c1 [3'-methoxyacetophenone] | -7 °C
CC(=O)c1cccc([N+](=O)[O-])c1 [3'-nitroacetophenone] | 78 °C
O=C(O)CCSCCC(=O)O [3,3'-thiodipropionic acid] | 131 °C
O=C(O)CC(F)(F)F [3,3,3-trifluoropropionic acid] | 9 °C
CC(=O)C(C)(C)C [3,3-Dimethylbutan-2-one] | -52.5 °C
C=CC(C)(C)C [3,3-dimethyl-1-butene] | -115 °C
CC(=O)C(C)(C)C [3,3-dimethyl-2-butanone] | -52 °C
CC1(C)C=Nc2ccccc21 [3,3-dimethyl-3H-indole] | 228 °C
CCC(C)(C)CC [3,3-dimethylpentane] | -134 °C
NCCC(c1ccccc1)c1ccccc1 [3,3-diphenylpropylamine] | 27 °C
CC(=O)OCC(OC(C)=O)C(OC(C)=O)C(OC(C)=O)C(OC(C)=O)C(=O)CBr (stereo unspecified) [3,4,5,6,7-penta-O-acetyl-1-bromo-1-deoxyhept-2-ulose] | 124 °C
O=Cc1cc(F)c(F)c(F)c1 [3,4,5-trifluorobenzaldehyde] | 25 °C
COc1cc(C=O)cc(OC)c1OC [3,4,5-trimethoxybenzaldehyde] | 75 °C

SMILES | melting point
COc1cc(C#N)cc(OC)c1OC [3,4,5-trimethoxybenzonitrile] | 94 °C
COc1cc(C(=O)Cl)cc(OC)c1OC [3,4,5-trimethoxybenzoyl chloride] | 80 °C
Nc1ccc(Cl)c(Cl)c1 [3,4-Dichloroaniline] | 72 °C
O=C(O)c1ccc(Cl)c(Cl)c1 [3,4-Dichlorobenzoic acid] | 208 °C
Oc1ccc(Cl)c(Cl)c1 [3,4-Dichlorophenol] | 67 °C
c1ccc2c(c1)cc1ccc3cccc4ccc2c1c34 [3,4-benzopyrene] | 179 °C
Nc1ccncc1N [3,4-diaminopyridine] | 219 °C
O=[N+]([O-])/C=C/c1ccc(Cl)c(Cl)c1 [3,4-dichloro-beta-nitrostyrene] | 93 °C
Nc1ccc(Cl)c(Cl)c1 [3,4-dichloroaniline] | 72 °C
O=C(c1ccccc1)c1ccc(Cl)c(Cl)c1 [3,4-dichlorobenzophenone] | 102 °C
OCc1ccc(Cl)c(Cl)c1 [3,4-dichlorobenzyl alcohol] | 38 °C
O=[N+]([O-])c1ccc(Cl)c(Cl)c1 [3,4-dichloronitrobenzene] | 41 °C (2×) and 41.2 °C
Oc1ccc(Cl)c(Cl)c1 [3,4-dichlorophenol] [listing 1 of 2 here] | 67 °C
Oc1ccc(Cl)c(Cl)c1 [3,4-dichlorophenol] [listing 2 of 2 here] | 66 °C
Cc1ccc(Cl)c(Cl)c1 [3,4-dichlorotoluene] | -15 °C
NC(=O)c1ccc(F)c(F)c1 [3,4-difluorobenzamide] | 133 °C
O=C(O)Cc1ccc(O)c(O)c1 [3,4-dihydroxyphenylacetic acid] | 129 °C
CC=C(C)C(C)C [3,4-dimethyl-cis-2-pentene] | -114 °C
Cc1ccc(N)cc1C [3,4-dimethylaniline] | 51 °C
Cc1ccc(C(=O)O)cc1C [3,4-dimethylbenzoic acid] | 166 °C
